Legend:
Redox potentials listing = assay type: physicochemical
Text: Texaphyrin is a known radiosensitizer. Not wanting to be bound by theory, texaphyrin is thought to act as a radiosensitizer in the following manner. Oxygen is the ultimate electron acceptor in physiological systems. However, texaphyrins have a redox potential below that of oxygen.

[1] = system: macrophage of restenotic tissue; experiment: Photodynamic therapy of balloon-induced iliac artery lesions (local delivery plus intravascular light); assay type: in vivo, New Zealand White rabbits
Protocol: Bilateral iliac artery lesions were induced in 9 male New Zealand White rabbits (NZW) after being on a high cholesterol diet (1%, Dyets, Bethlehem, Pa.) for 3 weeks. Each rabbit was anesthetized using a mixture of ketamine […]. The right carotid artery was exposed, carefully excised and a 5 Fr sheath (USCI) inserted into the descending aorta under fluoroscopic guidance. A 3.0 mm angioplasty balloon was advanced into the right or left iliac artery and then inflated distal to the deep femoral artery three times at 8 atm for 30 seconds. Subsequently, the same procedure was repeated in the contralateral iliac artery. Animals were maintained on the high cholesterol diet.
Six weeks after the denudation, each rabbit was reanesthetized. The left carotid artery was exposed, carefully excised and a 6 Fr sheath (USCI) inserted into the descending aorta under fluoroscopic guidance. A local drug delivery balloon (3 mm, Scimed, Minneapolis, Minn.) was advanced to the left or right iliac artery and placed at the same position as the previous balloon injury site. The proximal end of the delivery catheter was placed at the internal iliac artery under fluoroscopic control as a landmark reference. The balloon was inflated to 6 atm and 1 μmol/kg lutetium texaphyrin (LuT2BET) (2 mM in 5% mannitol) was infused intraarterially adjacent to the atheroma at a rate of 0.2 ml/min. Fifteen minutes post infusion a 0.9 mm optical fiber with a 3 cm cylindrical diffuser (Laserscope Inc., San Jose, Calif.) connected to an argon pumped dye laser (732 nm, Coherent Inc., Palo Alto, Calif.) delivered intravascular light at 180 J/cmF. One rabbit served as a light alone (no LuT2BET) control.
Two weeks following light treatment, each animal was euthanized and both iliac arteries were carefully removed from the adjacent tissue. Care was taken to harvest the exact portion of the artery where local drug delivery occurred by matching the anatomy with the respective fluoroscopic picture. The contralateral artery in the LuT2BET-treated rabbit served as a sensitizer alone control vessel. The vessels were fixed in 10% buffered formalin, embedded in paraffin and stained sequentially with RAM 11 (an antibody that binds with a cytoplasmic antigen in rabbit macrophages (DAKO)), and hematoxylin and eosin (H&E) for light microscopic analysis and planimetry.

[2] = Maximum tolerated dose of lutetium texaphyrin in one study; assay type: in vivo; details: intravenous injection; determined in one study
Protocol: Administration for Photodynaminc Therapy: By way of example, lutetium texaphyrin is administered in solution containing 2 mg/ml optionally in 5% mannitol, USP. Dosages of about 1.0 or 2.0 mg/kg to about 4.0 or 5.0 mg/kg, preferably 3.0 mg/kg may be employed, up to a maximum tolerated dose that was determined in one study to be 5.2 mg/kg. The texaphyrin is administered by intravenous injection, followed by a waiting period of from as short a time as several minutes or about 3 hours to as long as about 72 or 96 hours (depending on the treatment being effected) to facilitate intracellular uptake and clearance from the plasma and extracellular matrix prior to the administration of photoirradiation.

[3] = Cardiac toxicity study for texaphyrin and doxorubicin; assay type: in vivo, Sprague Dawley rats; details: 20 micromoles/kg i.v. 1 hour after doxorubicin 1 mg/kg, once a week for twelve weeks; versus doxorubicin alone
Protocol: To test whether gadolinium texaphyrin exacerbates cardiac toxicity, Sprague Dawley rats were injected intravenously either with 5% mannitol (10 ml/kg, n=6), or doxorubicin (1 mg/kg, n=14), or doxorubicin (1 mg/kg) followed 1 hour later by gadolinium texaphyrin (20 micromoles/kg, n=14). The dosing schedule was repeated once a week for twelve weeks. Animals were sacrificed one week post the last dose, and hearts were fixed in formalin.

[4] = system: restenosis of balloon-injured carotid artery; experiment: Radiation therapy of balloon-injured rat carotid artery in preventing restenosis; assay type: in vivo, Sprague-Dawley male rats; details: 2 weeks post-treatment
Text: The rat carotid model was used for the studies. Sprague-Dawley male rats weighing about 400-450 g were anesthetized and maintained with Ketamine/Rompun cocktail via the animal's tail vein. The rats were shaved to expose the chest and neck, and a midline incision was made to expose the left common carotid artery, the external carotid artery, and the internal carotid artery. The internal carotid artery was temporally ligated. A small incision was made in the external carotid artery and a 2F Fogarty arterial embolectomy balloon catheter (Baxter Cardiovascular Group, Irvine, Calif.) was introduced from the external carotid artery to the common carotid artery. The balloon was inflated with 0.2 ml of saline and withdrawn from near to the common carotid bifurcation with a rotating motion to produce uniform endothelial denudation and medial stretching in the common carotid artery. After 3 passages, the catheter was removed, the external carotid artery was ligated, and the internal carotid artery was untied. The incision was then closed.
GdT2BET (2mM in 5% mannitol) at 20 μmol/kg was injected via the tail vein 22 hours following balloon denudation of the carotid artery. Radiation therapy was performed 2 hours after the gadolinium texaphyrin injection. The treatment area was marked and a 250 kV X-ray radiation machine was used. […]

[5] = system: artery closure after angioplasty; details: in vivo; cited from earlier work

CC(=O)O.CC(=O)O.CCc1c(CC)c2cc3nc(cnc4cc(OCCOCCOCCOC)c(OCCOCCOCCOC)cc4ncc4nc(cc1[n-]2)C(CCCO)=C4C)C(C)=C3CCCO.[Gd] [GdT2B2]
redox potential (Redox potentials listing): +0.08 V.

CC(=O)[O-].CC(=O)[O-].CCc1c(CC)c2cc3nc(cnc4cc(OCCOCCOCCOC)c(OCCOCCOCCOC)cc4ncc4nc(cc1[n-]2)C(CCCO)=C4C)C(C)=C3CCCO.O.[Lu+3] [LuT2BET]
macrophages in treated lesion in intima (RAM 11 quantitative analysis) ([1]; 1 μmol/kg intraarterial plus 732 nm light, two weeks after light, versus 21±18%, P<<0.01): 5.1±5.3% | macrophages in treated lesion in media (RAM 11 quantitative analysis) ([1]; 1 μmol/kg intraarterial plus 732 nm light, two weeks after light, versus 22±20%, P<<0.01): 7.7±10% | Mean % plaque area in the treated segments ([1]; 1 μmol/kg intraarterial, 732 nm light 15 min post infusion, two weeks after light, nontreated segments 81±12%, P<<0.01): 73±10% | destruction of activated macrophages ([1]; with photoirradiation): selectively destroys activated macrophages | maximum tolerated dose [2]: 5.2 mg/kg

CC(=O)[O-].CC(=O)[O-].CCc1c(CC)c2cc3nc(cnc4cc(OCCOCCOCCOC)c(OCCOCCOCCOC)cc4ncc4nc(cc1[n-]2)C(CCCO)=C4C)C(C)=C3CCCO.O.[Gd+3] [GdT2BET]
cardiac toxicity (histologic evaluation) [3]: did not significantly exacerbate cardiac toxicity | restenosis in H&E sections, animals of four treated ([4]; 20 μmol/kg i.v. 22 hours after balloon denudation, 7 Gray X-ray 2 hours later, controls 100% restenosis): three had no evidence of restenosis | restenosis, lumen circumference affected in the fourth animal ([4]; 20 μmol/kg i.v. plus 7 Gray): up to 40%

B1: Abciximab (antibody, chains of the INN, looked up, V domains shown)
VH: EVQLQQSGTVLARPGASVKMSCEASGYTFTNYWMHWVKQRPGQGLEWIGAIYPGNSDTSYIQKFKGKAKLTAVTSTTSVYMELSSLTNEDSAVYYCTLYDGYYVFAYWGQGTLVTVSA
VL: EIVLTQSPVTLSVTPGDSVSLSCRASRDISNNLHWFQQTSHESPRLLIKYASQSMSGIPSRFSGSGSGTDFTLSINSVETEDFGMYFCQQTNSWPYTFGGGTKLEIK
modifications: Fab
reduction of the risk of artery closure after angioplasty [5]: up to 70%

From US20020115649A1, “Use of texaphyrins in macrophage-mediated disease” (Pharmacyclics, Inc., priority 1998, published 2002)
